We go through 5 compounds from patent US7838288B2, “Modulators of odorant receptors” (Duke University, priority 2004, dated 2010).

The target of test [1] is T1, mouse odorant receptor OREG (Mus musculus, UniProt Q920P2).
T1 construct: expressed in transfected cells; host or cells: 293T cells (with or without co-transfected REEP1/RTP1/RTP2) and Hana3A cells (293T stably expressing mouse REEP1, RTP1, RTP2, Galpha-olf)
T1 sequence (Q920P2 1-313): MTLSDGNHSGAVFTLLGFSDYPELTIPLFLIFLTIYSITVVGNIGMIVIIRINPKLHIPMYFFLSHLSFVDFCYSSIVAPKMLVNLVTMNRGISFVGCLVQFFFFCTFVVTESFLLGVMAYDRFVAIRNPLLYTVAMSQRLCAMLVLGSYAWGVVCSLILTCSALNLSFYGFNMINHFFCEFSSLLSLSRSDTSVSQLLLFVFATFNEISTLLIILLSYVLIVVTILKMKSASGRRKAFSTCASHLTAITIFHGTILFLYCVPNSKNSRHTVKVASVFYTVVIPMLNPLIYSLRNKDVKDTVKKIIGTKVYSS
As to the kind of experiment: CRE-luciferase reporter gene assay, OREG. It is filed as cell-based. The source says:
Poor odorant evoked signaling activity in heterologous cell culture systems expressing ORs has been attributed to the poor cell surface expression of ORs. The identification of REEP and/or RTP allowed a direct assessment of this issue. A luciferase reporter gene assay was employed in which a cAMP responsive element (CRE) mediated luciferase gene expression (see FIG. 8A). Because OR activation leads to an increase in cAMP, activation of the mouse odorant receptor OREG by its ligand eugenol was measured in the presence and absence of REEP and/or RTP (see, e.g., Kajiya, K., et al. (2001) J Neurosci 21, 6018-6025; Touhara, K., et al., (1999) Proc Natl Acad Sci USA 96, 4040-4045; each herein incorporated by reference in their entireties). As reported previously, eugenol increased levels of OREG dependent luciferase activity (see, e.g., Katada, S., et al. (2003) Biochem Biophys Res Commun 305, 964-969; herein incorporated by reference in its entirety).
(§1) To facilitate analysis of odorant-OR interactions, 293T cell lines were established which stably express REEP1, RTP1, RTP2 and Gαolf, the G protein alpha subunit that couples to OR (see, e.g., Belluscio, L., et al. (1998) Neuron 20, 69-81; Jones, D. T., and Reed, R. R. (1989). Science 244, 790-795; each herein incorporated by reference in their entireties). To establish such cells, linearized expression vectors containing mouse REEP1, RTP1, RTP2 and Gαolf ORFs were transfected into 293T cells with PGK-Pac (puromycin resistant gene) (see, e.g., Watanabe, S., et al. (1995) Biochem Biophys Res Commun 213, 130-137; herein incorporated by reference in its entirety). […] Enhanced cell-surface expression was observed when OREG or other ORs were transfected in Hana3A cells and immunostained (see FIG. 10). […] Expression of Gαolf alone in 293T cells had little or no effect on OR activation using this assay.
Dual-Glo system (Promega) for luciferase assay was used. CRE-Luciferase (Stratagene) was used to measure the receptor activities. Renilla luciferase driven by constitutively active SV40 promoter (pRL-SV40: Promega) was used as an internal control. Cells were plated on poly-D-lysine coated 96 well plates (BIOCOAT, Beckton Dickinson). After 8 hours (for experiments shown in FIGS. 8B and 8C) or 12 hours (for experiments shown in FIG. 8D and FIG. 11) after transfection, the medium was replaced with CD293 chemically defined medium (Invitrogen) and the plates were incubated for one hour at 37 degrees C. The medium was replaced with 50 ul of odorant solutions dissolved in CD293 and incubated for 10 hours (for experiments shown in FIGS. 8B and 8C) or 4 hours (for experiments shown in FIG. 8D and FIG. 11) at 37 degrees C. The manufacture's protocol for measuring luciferase and Renilla luciferase activities was followed. Luminescence was measured using Wallac Victor 1420 (Perkin-Elmer). Normalized luciferase activity was calculated as [Luc (N)-Luc (0)]/RL (N), where Luc (N)=Luminescent count of a certain well, Luc (0)=Luminescent count without odorant for each OR, and RL (N)=Luminescent count of Renilla Luciferase of each well. For cAMP assays, cells were plated onto 24-well plate. […]. Prism software (Graphpad) was used for data analysis.

Another test has as its target T2, OREG (Mus musculus, UniProt Q920P2).
T2 construct: expressed in transfected cells; host or cells: Hana3A cells, or HEK293T cells co-transfected with Golf
T2 sequence (Q920P2 1-313): T1 sequence (Q920P2 1-313)
As to the kind of experiment: cAMP assay, OREG. In kind it is cell-based. Particulars: OREG transfected; Hana3A cells vs 293T cells expressing Gαolf. As to the method:
In order to confirm the increased OR function in the presence of REEP1, RTP1 and RTP2, the amount of cAMP upon ligand stimulation was measured using 293T cells expressing Gαolf and Hana3A cells. […] In contrast, when the β2 adrenergic receptor was expressed and isoproterenol was used, no significant differences in cAMP production were observed (see FIG. 8E). The present invention is not limited to a particular mechanism. Indeed, an understanding of the mechanism is not necessary to practice the present invention. Nonetheless, this further supports a specific role of the accessory proteins in functional OR expression.
Dual-Glo system (Promega) for luciferase assay was used. CRE-Luciferase (Stratagene) was used to measure the receptor activities. Renilla luciferase driven by constitutively active SV40 promoter (pRL-SV40: Promega) was used as an internal control. Cells were plated on poly-D-lysine coated 96 well plates (BIOCOAT, Beckton Dickinson). […] Luminescence was measured using Wallac Victor 1420 (Perkin-Elmer). Normalized luciferase activity was calculated as [Luc (N)-Luc (0)]/RL (N), where Luc (N)=Luminescent count of a certain well, Luc (0)=Luminescent count without odorant for each OR, and RL (N)=Luminescent count of Renilla Luciferase of each well. […]
A general note: cAMP levels reflect the balance of adenylyl cyclase and phosphodiesterase activity.

For test [2], the system named is olfactory neurons S6 and S79. Particulars: previous studies (Malnic 1999); cited from earlier work.
The next test has as its system OR-S6/S79. As to the kind of experiment: CRE-luciferase reporter gene assay, OR-S6/S79. In kind it is cell-based, mouse. The settings on record: Hana3A cells. As to the method:
Four ORs (S6/79, S18, S46 and S50) previously assayed using other techniques (see, e.g., Malnic, B., et al. (1999) Cell 96, 713-723; herein incorporated by reference in its entirety) were tested against an assay panel of aliphatic alcohols, aldehydes and acids and some other odorants. Additionally, five “orphan” class I ORs (MOR23-1, MOR31-4, MOR31-6, MOR32-5 and MOR32-11) whose cognate ligands were unknown were tested. At a suprathreshold concentration of 100 uM, all these ORs were odorant selective, responding to only a small subset of the odorants tested (see FIG. 11A). This specificity was retained at lower, more physiologically relevant concentrations. Many of these ORs responded to odorants present in micromolar concentrations. The cell-surface expression of these ORs by living-cell immunofluorescence were evaluated. Some ORs (S18, MOR31-4, MOR31-6 and MOR32-5) were strongly expressed while other ORs (S6, S50, MOR23-1, MOR32-11) were weakly expressed (see FIG. 12). The present invention is not limited to a particular mechanism. Indeed, an understanding of the mechanism is not necessary to practice the present invention. […] Finally, two additional orphan class II ORs, MOR203-1 and olfr62, were tested against a panel of 139 odorants. […] Olfr62 responded to coumarine and piperonal (see FIG. 11C). […] When parental 293T cells for these ORs were used in this luciferase assay, little or no response to the odorants was observed. The present invention is not limited to a particular mechanism. Indeed, an understanding of the mechanism is not necessary to practice the present invention.
An expression system has been established that permits rapid identification of ligands for ORs. This system was tested with twelve ORs. Four of the tested ORs (S6/S79, S18, S46, and S50) were expressed in single olfactory neurons responding to aliphatic odorants (see, e.g., Malnic, B., et al. (1999) Cell 96, 713-723; herein incorporated by reference in its entirety). The response profiles of OR-S50, but not that of OR-S18 agreed with the previous report (see, e.g., Malnic, B., et al. (1999) Cell 96, 713-723; herein incorporated by reference in its entirety). […] In experiments conducted during the course of the present invention, OR-S6/S79 responded to nonanedioic acid but not to heptanoic acid or octanoic acid. The present invention is not limited to a particular mechanism. […] When multiple single olfactory neurons that expressed the same OR were recorded against the same set of odorants using calcium imaging, their response profiles were similar but different (see, e.g., Bozza, T., et al. (2002) J Neurosci 22, 3033-3043; herein incorporated by reference in its entirety).
(§2) Dual-Glo system (Promega) for luciferase assay was used. […] Luminescence was measured using Wallac Victor 1420 (Perkin-Elmer). […]
(A reporter such as luciferase makes a cellular process visible.)

A further test concerns OR-S50. As to the kind of experiment: CRE-luciferase reporter gene assay, OR-S50. In kind it is cell-based, mouse.
Text: as §1
Dual-Glo system (Promega) for luciferase assay was used. CRE-Luciferase (Stratagene) was used to measure the receptor activities. […] Luminescence was measured using Wallac Victor 1420 (Perkin-Elmer). Normalized luciferase activity was calculated as [Luc (N)-Luc (0)]/RL (N), where Luc (N)=Luminescent count of a certain well, Luc (0)=Luminescent count without odorant for each OR, and RL (N)=Luminescent count of Renilla Luciferase of each well. […]

In a further test the test system is MOR31-4. Put plainly: CRE-luciferase reporter gene assay, MOR31-4. It is filed as cell-based, mouse. Particulars: Hana3A cells. As to the method: (§3) Four ORs (S6/79, S18, S46 and S50) previously assayed using other techniques (see, e.g., Malnic, B., et al. (1999) Cell 96, 713-723; herein incorporated by reference in its entirety) were tested against an assay panel of aliphatic alcohols, aldehydes and acids and some other odorants. Additionally, five “orphan” class I ORs (MOR23-1, MOR31-4, MOR31-6, MOR32-5 and MOR32-11) whose cognate ligands were unknown were tested. At a suprathreshold concentration of 100 uM, all these ORs were odorant selective, responding to only a small subset of the odorants tested (see FIG. 11A). This specificity was retained at lower, more physiologically relevant concentrations. Many of these ORs responded to odorants present in micromolar concentrations. The cell-surface expression of these ORs by living-cell immunofluorescence were evaluated. Some ORs (S18, MOR31-4, MOR31-6 and MOR32-5) were strongly expressed while other ORs (S6, S50, MOR23-1, MOR32-11) were weakly expressed (see FIG. 12). […]
(§4) Dual-Glo system (Promega) for luciferase assay was used. […] Luminescence was measured using Wallac Victor 1420 (Perkin-Elmer). Normalized luciferase activity was calculated as [Luc (N)-Luc (0)]/RL (N), where Luc (N)=Luminescent count of a certain well, Luc (0)=Luminescent count without odorant for each OR, and RL (N)=Luminescent count of Renilla Luciferase of each well. […]

In another test the test system is MOR203-1. As to the kind of experiment: CRE-luciferase reporter gene assay, MOR203-1. The settings on record: Hana3A cells. In kind it is cell-based, mouse. As for the experimental part:
as §3, §4

The next test has as its system OR-S46. As to the kind of experiment: CRE-luciferase reporter gene assay, OR-S46. It is filed as cell-based, mouse. Particulars: Hana3A cells.
Text: To facilitate analysis of odorant-OR interactions, 293T cell lines were established which stably express REEP1, RTP1, RTP2 and Gαolf, the G protein alpha subunit that couples to OR (see, e.g., Belluscio, L., et al. (1998) Neuron 20, 69-81; Jones, D. T., and Reed, R. R. (1989). Science 244, 790-795; each herein incorporated by reference in their entireties). To establish such cells, linearized expression vectors containing mouse REEP1, RTP1, RTP2 and Gαolf ORFs were transfected into 293T cells with PGK-Pac (puromycin resistant gene) (see, e.g., Watanabe, S., et al. (1995) Biochem Biophys Res Commun 213, 130-137; herein incorporated by reference in its entirety). […] Enhanced cell-surface expression was observed when OREG or other ORs were transfected in Hana3A cells and immunostained (see FIG. 10). […]
Four ORs (S6/79, S18, S46 and S50) previously assayed using other techniques (see, e.g., Malnic, B., et al. (1999) Cell 96, 713-723; herein incorporated by reference in its entirety) were tested against an assay panel of aliphatic alcohols, aldehydes and acids and some other odorants. […] The cell-surface expression of these ORs by living-cell immunofluorescence were evaluated. […]
as §2

The subject of a further test is MOR23-1. Put plainly: CRE-luciferase reporter gene assay, MOR23-1. In kind it is cell-based, mouse. The settings on record: Hana3A cells. As for the experimental part:
as §3, §4

Entries after “also recorded” stand apart in the source; their conditions may differ.

On to `C=CCc1ccc(O)c(OC)c1` [eugenol, reference compound], for which the luciferase induction result in test [1] (HA-OREG in 293T cells) is “Little luciferase induction was observed”. Besides, the luciferase activity result in test [1] (HA-OREG in Hana3A cells) is given as “an enhancement in luciferase activity was observed”. Moreover, the “OREG dependent luciferase activity” value in [1] (odorant applied, OREG in 293T cells with or without REEP and/or RTP) was “increased”. Besides, the cAMP production entry at OREG is “Enhanced cAMP production; also recorded: more cAMP was produced”.

Regarding `CCCCCCC(=O)O` [heptanoic acid, Heptanoic acid], the “response of single olfactory neurons S6 and S79 to odorant” value in [2] is given as “only the olfactory neuron S79 responded”. In addition, the “response of OR-S6/S79 to odorant (luciferase)” value (“response of OR-S6/S79” below) in the test with OR-S6/S79 was “not”.

On to `O=C(O)CCCCCCCC(=O)O` [nonanedioic acid], for which the “response of single olfactory neurons S6 and S79 to odorant” value in [2] is “both responded”. For the same compound, the “response of OR-S6/S79” value in the test on OR-S6/S79 is given as “responded”. In the test on OR-S50 (OR-S50 in 293T cells), the luciferase response result is recorded as “did not produce a luciferase response”. Further, the luciferase activity entry with OR-S50 (OR-S50 in Hana3A cells) is recorded as “robust luciferase activity”.

`CCCCCCCCC(=O)O` [nonanoic acid, Nonanoic acid]: in the test on MOR31-4, the “response of MOR31-4 to odorant (luciferase)” value is reported as “responded”. In addition, in the test on MOR203-1, the “response of MOR203-1 to odorant (luciferase)” value is reported as “responded to high concentrations”. Also, in the test with OR-S46, the “response of S46 to odorant (luciferase)” value is listed as “responded”. Moreover, the “response of MOR23-1 to odorant (luciferase)” value in the test on MOR23-1 is “responded”.

Take `CCCCCCCC(=O)O` [octanoic acid]: the “response of single olfactory neurons S6 and S79 to odorant” value in [2] is reported as “only the olfactory neuron S79 responded”. Also, in the test with OR-S6/S79, the “response of OR-S6/S79” value is “not”.
